Here are results for 4 compounds from US8354455B2, “Prodrugs containing novel bio-cleavable linkers” (Piramal Enterprises Limited and Apparao Satyam, priority 2004, dated 2013).

“Also recorded” adds a separate entry of the source. Read-outs that look alike come from different tables or passages of the source. Marks after values point to notes of the source that are not given here. A value given as a limit tells only on which side of the number the result lay.

One data set has as its system rats. Description: Neurotoxicity, rats p.o. (Test 2 and Test 3). Particulars: Test 2, rats p.o., 30 mg/kg.
The next data set concerns convulsant metrazol. Nature of the data set: Subcutaneous Metrazol Seizure Threshold Test (scMET), Test 1, mice i.p. Particulars: for ScMET 0.5 h / ScMET 4.0 h: mice, i.p.; for ScMET 0.5 h / ScMET 4.0 h / minimal effective dose: symbol = dose with activity; for minimal effective dose: Mus musculus, ip. The class given is in vivo.
The subject of a further data set is MES-induced seizures. Description: Maximal Electroshock Test (MES), Test 1, mice i.p. Particulars: for activity in MES model (in words): Test 1, mice i.p. In kind it is in vivo.
In a further data set the test system is mice. Particulars: for toxicity (in words): Test 1, mice i.p.; for Rotorod Toxicity 4.0 h / Rotorod Toxicity 0.5 h: mice, i.p., symbol = dose with toxicity.
Where [1] appears, read: mice, i.p., 4.0 h, 300 mg/kg (+).

Text for rats: Acute Toxicity—Minimal Motor Impairment (MMI): To assess a compound's undesirable side effects (toxicity), animals were monitored for overt signs of impaired neurological or muscular function.
Groups of at least 8 rats received various doses of the candidate compound until at least two points were established between the limits of 100 percent protection or toxicity and zero percent protection or minimal toxicity. The 95 percent confidence limits, slopes of the regression lines and standard errors of the slopes were calculated for each quantitative determination. Rats received test compounds orally.
This secondary evaluation determines the time to peak effect (TPE), neurotoxicity, median effective dose (ED50) and biological response.

Consider `CS(=O)(=O)NC(=O)OCCSSCCOC(=O)Nc1nnc(-c2cccc(Cl)c2Cl)c(N)n1` [I-A1-PD15], for which the “Toxicity (number of animals exhibiting toxicity/number of animals tested)” value in the data set with rats (0.50 h), in the data set with rats (1.00 h), with rats (2.00 h) and with rats (4.00 h) was 0/4 each time. For the same compound, the “ScMET 0.5 h” value in the data set on convulsant metrazol (0.5 h) was “— (— = no activity or no toxicity at 300 mg/kg)”. In the data set on convulsant metrazol, the “ScMET 4.0 h” value was “— (— = no activity or no toxicity at 300 mg/kg)”. Besides, the “activity in MES model (in words)” value in the data set on MES-induced seizures is listed as “active in MES”. In the data set with MES-induced seizures (setting [1]), the “MES (number of animal protected/number of animal tested)” value is “(1/1)”. In the data set on mice, the “toxicity (in words)” value was “no or mild toxicity”.

Regarding `Nc1nc(NC(=O)OCCSSCCOC(=O)NCC2(CC(=O)O)CCCCC2)nnc1-c1cccc(Cl)c1Cl` [I-AA-MPD11], the “Toxicity (number of animals exhibiting toxicity/number of animals tested)” value with rats (1.00 h), in the data set with rats (2.00 h) and in the data set with rats (4.00 h) was 0/4 in each case. Also, the minimal effective dose is over 300 mg/kg in the data set on convulsant metrazol (0.5 h, read-out: ScMET 0.5 h, mice, i.p., 0.5 h); over 300 mg/kg in the data set on convulsant metrazol (4 h, read-out: ScMET 4.0 h, mice, i.p., 4.0 h); over 300 mg/kg in the data set on MES-induced seizures (Mus musculus, ip, 0.5 h, read-out: MES 0.5 h, mice, i.p., 0.5 h, symbol = dose with activity). Further, the “activity in MES model (in words)” value in the data set on MES-induced seizures is “active in MES”. Besides, the “MES (number of animal protected/number of animal tested)” value in the data set on MES-induced seizures (setting [1]) is reported as “(1/1)”. Besides, the “toxicity (in words)” value in the data set on mice is “no or mild toxicity”. Also, the “Rotorod Toxicity 4.0 h” value in the data set on mice is on record as “— (— = no activity or no toxicity at 300 mg/kg)”.

As to `Nc1nc(NC(=O)OCCSSCCOC(=O)c2cccnc2)nnc1-c1cccc(Cl)c1Cl` [I-CA-MPD24], the “Toxicity (number of animals exhibiting toxicity/number of animals tested)” value in the data set on rats (0.50 h), in the data set on rats (1.00 h), with rats (2.00 h) and with rats (4.00 h) was 0/4 each time. Besides, the “activity in scMET model (in words)” value in the data set with convulsant metrazol (Test 1, mice i.p.) is reported as “active”. The “ScMET 0.5 h” value with convulsant metrazol (0.5 h) is recorded as “— (— = no activity or no toxicity at 300 mg/kg)”. Further, the “activity in MES model (in words)” value in the data set on MES-induced seizures is given as “active in MES”. In addition, in the data set with MES-induced seizures (mice, i.p., 0.5 h, symbol = dose with activity), the “MES 0.5 h” value is on record as “— (— = no activity or no toxicity at 300 mg/kg)”. For the same compound, in the data set on MES-induced seizures (mice, i.p., 2 h (footnote h; printed in 4.0 h column)), the “MES, at 2 hours after dosing” value is “++ (++ = activity or toxicity at 100 mg/kg)”. The “MES (number of animal protected/number of animal tested)” value in the data set with MES-induced seizures (mice, i.p., 2 h after dosing, 100 mg/kg (++)) is listed as “(3/3)^h”; in the data set on MES-induced seizures (mice, i.p., 6 h after dosing, 100 mg/kg (++)) it was “(3/3)^m”. Also, the “MES 4.0 h” value in the data set on MES-induced seizures (mice, i.p., 4.0 h, symbol = dose with activity) is “++ (++ = activity or toxicity at 100 mg/kg)”. Besides, the “MES, at 6 hours after dosing” value with MES-induced seizures (mice, i.p., 6 h (footnotes g, m; printed in 4.0 h column)) is “++ (++ = activity or toxicity at 100 mg/kg)”. In addition, in the data set on mice, the “toxicity (in words)” value is “non-toxic; also recorded: no or mild toxicity”. Besides, the “Rotorod Toxicity 0.5 h” value in the data set on mice was “— (— = no activity or no toxicity at 300 mg/kg)”. For the same compound, the “Rotorod Toxicity 4.0 h” value in the data set on mice was “— (— = no activity or no toxicity at 300 mg/kg)”.

As for `Cl.Nc1nc(NC(=O)OCCSSCCNC(=O)c2cccnc2)nnc1-c1cccc(Cl)c1Cl` [I-CA-MPD25], the “Toxicity (number of animals exhibiting toxicity/number of animals tested)” value in the data set with rats (0.50 h), with rats (1.00 h), with rats (2.00 h) and with rats (4.00 h) was 0/4 each time. Besides, the “ScMET 0.5 h” value with convulsant metrazol (0.5 h) is given as “— (— = no activity or no toxicity at 300 mg/kg)”. In addition, the “ScMET 4.0 h” value in the data set on convulsant metrazol was “— (— = no activity or no toxicity at 300 mg/kg)”. In the data set with MES-induced seizures, the “activity in MES model (in words)” value was “active in MES”. In addition, the “MES (number of animal protected/number of animal tested)” value with MES-induced seizures (setting [1]) is “(1/1)”. Further, the “toxicity (in words)” value in the data set with mice is given as “no or mild toxicity”. Further, the “Rotorod Toxicity 0.5 h” value in the data set with mice is “— (— = no activity or no toxicity at 300 mg/kg)”. In addition, the “Rotorod Toxicity 4.0 h” value with mice is “— (— = no activity or no toxicity at 300 mg/kg)”.
